# In US10421751B2, “Dihydro-2H-benzo[b][1,4]oxazine sulfonamide and related compounds for use as agonists of RORγ and the treatment of disease” (Lycera Corporation, priority 2015, dated 2019):
# Experiments:
# Gal4-RORγ-LBD = target: T1, Gal4-RORγ-LBD (Homo sapiens, UniProt P51449); test: Gal4-RORγ Luciferase Reporter Assay in HEK-293T Cells; format: cell-based; details: for EC50: HEK-293 cells, in presence of 2 μM ursolic acid, overnight incubation, read-out: Ga14-RORγ Assay EC50; for Ga14-RORγ Assay Max Response: upper plateau of 4-parameter fit, luciferase signal in the absence of ursolic acid or test compound defined at 100
# T1 construct: expressed in transfected cells; pcDNA3.1neo plasmid, co-transfected with pGL4.31 Gal4-luciferase reporter
# T1 sequence (P51449 269-508 limits assumed): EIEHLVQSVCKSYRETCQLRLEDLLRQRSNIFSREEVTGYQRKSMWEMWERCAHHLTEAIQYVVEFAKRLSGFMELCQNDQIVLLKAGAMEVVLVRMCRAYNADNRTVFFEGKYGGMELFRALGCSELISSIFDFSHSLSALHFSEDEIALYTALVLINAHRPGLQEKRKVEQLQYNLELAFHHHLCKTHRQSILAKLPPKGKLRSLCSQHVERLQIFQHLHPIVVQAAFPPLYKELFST
# Description: In the following protocol, HEK-293 cells were transfected with a construct comprising the Gal4 DNA binding domain fused to the ligand binding domain of RORγ (Gal4-RORγ-LBD) in a pcDNA3.1neo plasmid, and also with a reporter construct comprising pGL4.31 Gal4-luciferase (Promega). Control cells were prepared similarly using empty pcDNA3.1neo and pGL4.31 vectors.
# Trans-IT reagent (Mirus, 60 μL) at room temperature was added drop wise to OptiMEM (Invitrogen, 1.5 ml). This reagent mixture was mixed by inversion then incubated for 5 to 30 minutes at room temperature. It then was added to a solution of both expression vectors (5 μg each), mixed, and incubated at room temperature for about 20 minutes. HEK-293 cells were harvested from incubation flasks by removing the media, treating with TrypLE Express (Invitrogen), and incubating until the cells detached from the bottom of the flask (approximately 2-5 minutes). 10 Million cells were collected by centrifugation and re-suspended in 10 mL of Dulbecco's Modified Eagle Medium, High Glucose (DMEM, Invitrogen) containing 10% Fetal Bovine Serum and 100 IU each of penicillin and streptomycin. The re-suspended cells and the transfection mixture were added to a T75 flask, mixed and incubated overnight at 37° C. and 5% CO2.
# The cells were harvested as described above, counted, and centrifuged to obtain the desired number of cells, then re-suspended in complete growth media at 0.75×10^6 cells/mL. The RORγ antagonist, ursolic acid, was added to the cells at a final concentration of 2 μM. Cells were plated at 20 μL of cell suspension/well (10,000-15,000 cells/well) in white tissue culture treated 384 well plates. Test compounds were dissolved at 10 mM in DMSO then diluted into complete growth medium to 5× the final intended test concentration. These drug stock solutions, 5 μL/well were added to the tissue culture plate. The final DMSO concentration was 0.2%. The plates were briefly centrifuged then incubated overnight at 37° C. and 5% CO2. To conduct the assay, the tissue culture plates were allowed to equilibrate to room temperature and One-Glo luciferase reagent (Promega, 25 μL/well) was added. The plates were briefly centrifuged then incubated at room temperature for 10 minutes. The luciferase intensity was read on an Envision plate reader (Perkin Elmer). RORγ activity was determined relative to controls and plotted as a function of test compound concentration using PRISM (GraphPad) to determine a 50% effective concentration (EC50). The luciferase signal in the absence of ursolic acid or test compound is defined at 100. The Max Response is the upper plateau in the signal as determined by line-fit using a 4-parameter logistic model in PRISM (GraphPad).
# RORγ-LBD = target: T2, RORγ-LBD (Homo sapiens, UniProt P51449); test: RORγ-Ligand Binding Domain (LBD) TR-FRET Assay; format: biochemical; details: for EC50: in presence of 2 μM RORγ antagonist ursolic acid, SRC1 coactivator peptide; for TR-FRET Assay Max Response: upper plateau of 4-parameter fit, signal in the absence of ursolic acid or test compound set as 100
# T2 construct: made in house; host or cells: SF9 cells, baculovirus expression system; used as diluted lysate
# T2 sequence (P51449 269-508 limits assumed): T1 sequence (P51449 269-508 limits assumed)
# Description: HIS-tagged RORγ-LBD protein was expressed in SF9 cells using a baculovirus expression system. The lysate was diluted in assay buffer (50 mM Tris pH 7.0, 50 mM KCl, 1 mM EDTA, 0.1 mM DTT, 0.01% BSA) to obtain RORγ-LBD final concentration of ˜3 nM in a 384-well assay plate (need to titrate for each batch of protein).
# A stock of biotinylated-LXXLL peptide from coactivator SRC1 (Biotin-[…]) was prepared in assay buffer and added to each well (200 nM final concentration). A solution of Europium tagged anti-HIS antibody (0.6 nM final concentration) and APC-conjugated streptavidin (30 nM final concentration) were also added to each well. RORγ antagonist ursolic acid was also included at a final concentration of 2 μM. Compounds were diluted in DMSO and further diluted in assay buffer with a final DMSO concentration at 1%.
# The final assay mixture was incubated overnight at 4° C. or 2 hours at room temperature, and the fluorescence signal was measured on an Envision plate reader: (Excitation filter=340 nm; APC emission=665 nm; Europium emission=615 nm; dichroic mirror=D400/D630; delay time=100 μs, integration time=200 μs). 50% Effective concentration (EC50) values for test compounds were calculated from the quotient of the fluorescence signal at 665 nm divided by the fluorescence signal at 615 nm. The quotient of the fluorescence signals in the absence of ursolic acid or test compound is set as 100. Max Response is defined as the upper plateau in the signal as determined by line-fit using a 4-parameter logistic model in PRISM (GraphPad).
EC50 (Gal4-RORγ-LBD) [nM],EC50 (RORγ-LBD) [nM],SMILES,Ga14-RORγ Assay Max Response (Gal4-RORγ-LBD),TR-FRET Assay Max Response (RORγ-LBD)
100 to 5000,100 to 5000,C/C(=C\c1ccc2c(c1)N(S(=O)(=O)c1cccc(C(F)(F)F)c1)C[C@H](Oc1noc(=O)[nH]1)C2)c1c(F)cccc1Cl,** (a value in the range of greater than 90 to 150),*** (a value in the range of greater than 150 to 200)
5000 to 10000,< 100,C/C(=C\c1ccc2c(c1)N(S(=O)(=O)c1cccc(C(F)(F)F)c1)C[C@H](Oc1n[nH]c(=O)[nH]1)C2)c1c(F)cccc1Cl,** (a value in the range of greater than 90 to 150),*** (a value in the range of greater than 150 to 200)
100 to 5000,< 100,C/C(=C\c1ccc2c(c1)N(S(=O)(=O)c1cccc(C(F)(F)F)c1)[C@H](C)[C@H](Cn1ccnc1)C2)c1c(F)cccc1Cl,** (a value in the range of greater than 90 to 150),*** (a value in the range of greater than 150 to 200)
100 to 5000,< 100,C/C(=C\c1ccc2c(c1)N(S(=O)(=O)c1cccc(C(F)(F)F)c1)C[C@H](CCc1noc(=O)[nH]1)O2)c1c(F)cccc1Cl,*** (a value in the range of greater than 150 to 200),*** (a value in the range of greater than 150 to 200)
100 to 5000,< 100,C/C(=C\c1ccc2c(c1)N(S(=O)(=O)c1cccc(C(F)(F)F)c1)C[C@H](CCn1ccnc1)O2)c1c(F)cccc1Cl,** (a value in the range of greater than 90 to 150),*** (a value in the range of greater than 150 to 200)
100 to 5000,< 100,C/C(=C\c1ccc2c(c1)N(S(=O)(=O)c1cccc(C(F)(F)F)c1)C[C@H](CCCn1ccnc1)O2)c1c(F)cccc1Cl,** (a value in the range of greater than 90 to 150),*** (a value in the range of greater than 150 to 200)
100 to 5000,< 100,C/C(=C\c1ccc2c(c1)N(S(=O)(=O)c1cccc(C(F)(F)F)c1)C[C@H](CCn1ccnn1)O2)c1c(F)cccc1Cl,** (a value in the range of greater than 90 to 150),*** (a value in the range of greater than 150 to 200)
100 to 5000,< 100,C/C(=C\c1ccc2c(c1)N(S(=O)(=O)c1cccc(C(F)(F)F)c1)C[C@H](CCn1cc(C(=O)O)nn1)O2)c1c(F)cccc1Cl,*** (a value in the range of greater than 150 to 200),*** (a value in the range of greater than 150 to 200)
100 to 5000,< 100,O=c1[nH]nc(CC[C@H]2CN(S(=O)(=O)c3cccc(C(F)(F)F)c3)c3cc(/C=C/c4c(Cl)cccc4C(F)(F)F)ccc3O2)o1,** (a value in the range of greater than 90 to 150),*** (a value in the range of greater than 150 to 200)
100 to 5000,100 to 5000,C[C@@H]1[C@H](n2cc[nH]c2=O)Cc2ccc(/C=C/c3c(F)cccc3C(F)(F)F)cc2N1S(=O)(=O)c1cccc(C(F)(F)F)c1,** (a value in the range of greater than 90 to 150),*** (a value in the range of greater than 150 to 200)
100 to 5000,< 100,C/C(=C\c1ccc2c(c1)N(S(=O)(=O)c1cccc(C(F)(F)F)c1)C[C@H](Cc1n[nH]c(=O)o1)O2)c1c(F)cccc1Cl,* (a value in the range of 40 to 90),*** (a value in the range of greater than 150 to 200)
100 to 5000,< 100,O=c1[nH]nc(CC[C@H]2CN(S(=O)(=O)c3cccc(C(F)(F)F)c3)c3cc(/C=C/c4ncccc4C(F)(F)F)ccc3O2)o1,** (a value in the range of greater than 90 to 150),*** (a value in the range of greater than 150 to 200)
100 to 5000,< 100,COc1cc(S(=O)(=O)N2C[C@H](CCc3n[nH]c(=O)o3)Oc3ccc(/C=C(\C)c4c(F)cccc4Cl)cc32)ccc1F,** (a value in the range of greater than 90 to 150),** (a value in the range of greater than 90 to 150)
100 to 5000,< 100,CCOc1nn(CC)cc1S(=O)(=O)N1C[C@H](CCc2n[nH]c(=O)o2)Oc2ccc(/C=C(\C)c3c(F)cccc3Cl)cc21,*** (a value in the range of greater than 150 to 200),*** (a value in the range of greater than 150 to 200)
100 to 5000,< 100,C/C(=C\c1ccc2c(c1)N(S(=O)(=O)c1cccc(C(F)(F)F)c1)C[C@H](CCOc1noc(=O)[nH]1)O2)c1c(F)cccc1Cl,** (a value in the range of greater than 90 to 150),*** (a value in the range of greater than 150 to 200)
100 to 5000,< 100,C/C(=C\c1ccc2c(c1)N(S(=O)(=O)c1cccc(OC(F)F)c1)C[C@H](CCOc1noc(=O)[nH]1)O2)c1c(F)cccc1Cl,** (a value in the range of greater than 90 to 150),*** (a value in the range of greater than 150 to 200)
100 to 5000,< 100,CCn1cc(S(=O)(=O)N2C[C@H](CCOc3noc(=O)[nH]3)Oc3ccc(/C=C(\C)c4c(F)cccc4Cl)cc32)c(Cl)n1,*** (a value in the range of greater than 150 to 200),*** (a value in the range of greater than 150 to 200)
100 to 5000,< 100,CCOc1nn(CC)cc1S(=O)(=O)N1C[C@H](CCOc2noc(=O)[nH]2)Oc2ccc(/C=C(\C)c3c(F)cccc3Cl)cc21,** (a value in the range of greater than 90 to 150),*** (a value in the range of greater than 150 to 200)
100 to 5000,< 100,COc1cc(S(=O)(=O)N2C[C@H](CCOc3noc(=O)[nH]3)Oc3ccc(/C=C(\C)c4c(F)cccc4Cl)cc32)ccc1F,**** (a value greater than 200),*** (a value in the range of greater than 150 to 200)
